Patent publication US9549932B2, “2-(morpholin-4-yl)-1,7-naphthyridines” (BAYER PHARMA AKTIENGESELLSCHAFT, priority 2014, dated 2017)

Target: full-length human ATR protein (Homo sapiens (Human), UniProt Q13535)
Test: Binding assay ATR (TR-FRET tracer displacement)
Details: tracer A, TR-FRET; read-out: ATR binding (tracer A) IC50
Outline: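 Full-length human GST-ATR co-purified with ATRIP, pre-complexed 30 min at 22 °C with anti-GST-Tb antibody, then pre-bound with compound 10 min. Tracer A or B added (2 µl of 100 nM solution), 30 min at 22 °C.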

Chain of full-length human ATR protein (Q13535 other isoform, or with tags, fused parts or gaps): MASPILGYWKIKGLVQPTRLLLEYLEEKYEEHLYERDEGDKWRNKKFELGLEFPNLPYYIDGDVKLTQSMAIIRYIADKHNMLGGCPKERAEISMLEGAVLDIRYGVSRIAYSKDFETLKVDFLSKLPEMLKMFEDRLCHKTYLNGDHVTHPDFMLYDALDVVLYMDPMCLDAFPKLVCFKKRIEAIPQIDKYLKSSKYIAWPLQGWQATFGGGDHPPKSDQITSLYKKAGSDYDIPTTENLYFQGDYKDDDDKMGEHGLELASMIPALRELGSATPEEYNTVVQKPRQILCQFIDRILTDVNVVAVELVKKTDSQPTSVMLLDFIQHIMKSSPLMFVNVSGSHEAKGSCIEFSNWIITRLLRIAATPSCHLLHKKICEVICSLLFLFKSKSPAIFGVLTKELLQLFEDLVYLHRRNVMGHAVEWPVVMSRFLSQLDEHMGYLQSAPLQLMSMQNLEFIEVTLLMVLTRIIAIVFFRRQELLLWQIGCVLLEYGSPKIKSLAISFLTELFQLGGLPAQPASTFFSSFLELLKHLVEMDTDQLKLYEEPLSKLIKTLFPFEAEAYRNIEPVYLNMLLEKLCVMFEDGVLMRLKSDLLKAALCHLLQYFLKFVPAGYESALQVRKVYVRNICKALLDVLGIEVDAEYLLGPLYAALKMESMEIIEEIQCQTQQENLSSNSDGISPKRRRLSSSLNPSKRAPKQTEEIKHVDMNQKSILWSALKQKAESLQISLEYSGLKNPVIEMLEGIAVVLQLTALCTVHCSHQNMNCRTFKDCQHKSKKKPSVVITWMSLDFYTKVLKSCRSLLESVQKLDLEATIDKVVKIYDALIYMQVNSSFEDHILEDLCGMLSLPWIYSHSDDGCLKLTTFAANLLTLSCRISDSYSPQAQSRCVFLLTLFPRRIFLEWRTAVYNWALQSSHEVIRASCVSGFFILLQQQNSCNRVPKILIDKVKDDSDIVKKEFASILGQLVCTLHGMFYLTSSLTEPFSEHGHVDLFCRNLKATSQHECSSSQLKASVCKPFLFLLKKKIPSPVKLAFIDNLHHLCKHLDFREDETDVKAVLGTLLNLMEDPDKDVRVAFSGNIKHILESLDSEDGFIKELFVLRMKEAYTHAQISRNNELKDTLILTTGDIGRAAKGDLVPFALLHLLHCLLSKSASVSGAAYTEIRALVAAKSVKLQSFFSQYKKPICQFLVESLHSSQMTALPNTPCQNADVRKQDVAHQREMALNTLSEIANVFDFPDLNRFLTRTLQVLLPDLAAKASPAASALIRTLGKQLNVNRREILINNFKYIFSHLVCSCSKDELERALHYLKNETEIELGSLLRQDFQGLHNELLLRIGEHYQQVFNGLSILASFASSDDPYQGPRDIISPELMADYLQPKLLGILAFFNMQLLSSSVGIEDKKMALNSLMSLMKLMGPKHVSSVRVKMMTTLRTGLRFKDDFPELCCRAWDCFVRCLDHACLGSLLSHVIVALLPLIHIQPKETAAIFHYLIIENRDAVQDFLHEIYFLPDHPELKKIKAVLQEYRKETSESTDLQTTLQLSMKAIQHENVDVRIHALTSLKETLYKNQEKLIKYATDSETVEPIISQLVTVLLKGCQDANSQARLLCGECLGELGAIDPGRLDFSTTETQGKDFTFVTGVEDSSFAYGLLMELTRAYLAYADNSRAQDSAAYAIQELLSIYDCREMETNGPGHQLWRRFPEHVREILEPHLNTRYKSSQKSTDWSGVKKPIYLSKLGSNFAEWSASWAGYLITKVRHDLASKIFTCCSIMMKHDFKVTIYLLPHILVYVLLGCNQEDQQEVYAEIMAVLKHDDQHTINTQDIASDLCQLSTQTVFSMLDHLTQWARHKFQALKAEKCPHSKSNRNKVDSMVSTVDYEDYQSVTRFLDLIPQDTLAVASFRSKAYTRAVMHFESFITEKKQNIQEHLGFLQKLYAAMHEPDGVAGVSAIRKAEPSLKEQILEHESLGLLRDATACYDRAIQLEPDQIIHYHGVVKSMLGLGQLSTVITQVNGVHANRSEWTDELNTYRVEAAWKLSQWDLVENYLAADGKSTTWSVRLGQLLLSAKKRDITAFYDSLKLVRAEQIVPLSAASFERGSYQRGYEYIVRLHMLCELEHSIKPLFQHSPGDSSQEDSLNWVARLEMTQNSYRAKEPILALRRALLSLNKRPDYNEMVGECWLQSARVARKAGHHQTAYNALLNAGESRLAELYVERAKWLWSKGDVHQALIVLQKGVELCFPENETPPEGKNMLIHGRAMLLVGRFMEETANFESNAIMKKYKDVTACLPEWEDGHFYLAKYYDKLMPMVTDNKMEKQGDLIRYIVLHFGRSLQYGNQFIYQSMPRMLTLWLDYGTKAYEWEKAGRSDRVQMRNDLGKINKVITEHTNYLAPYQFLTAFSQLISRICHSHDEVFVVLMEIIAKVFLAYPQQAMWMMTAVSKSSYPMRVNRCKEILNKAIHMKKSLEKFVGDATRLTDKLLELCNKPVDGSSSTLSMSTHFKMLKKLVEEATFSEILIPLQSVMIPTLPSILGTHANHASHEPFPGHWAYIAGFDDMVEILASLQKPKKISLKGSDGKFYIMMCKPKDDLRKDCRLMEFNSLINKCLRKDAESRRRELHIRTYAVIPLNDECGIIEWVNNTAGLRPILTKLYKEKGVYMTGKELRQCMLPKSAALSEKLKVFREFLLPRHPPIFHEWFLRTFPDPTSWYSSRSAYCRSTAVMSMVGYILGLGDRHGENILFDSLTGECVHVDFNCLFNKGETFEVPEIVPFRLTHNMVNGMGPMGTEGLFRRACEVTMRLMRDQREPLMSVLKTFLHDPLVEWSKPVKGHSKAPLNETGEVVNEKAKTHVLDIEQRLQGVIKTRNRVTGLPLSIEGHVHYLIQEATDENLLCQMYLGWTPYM
Chain of full-length human ATR protein (Q8WXE1 other isoform, or with tags, fused parts or gaps partner): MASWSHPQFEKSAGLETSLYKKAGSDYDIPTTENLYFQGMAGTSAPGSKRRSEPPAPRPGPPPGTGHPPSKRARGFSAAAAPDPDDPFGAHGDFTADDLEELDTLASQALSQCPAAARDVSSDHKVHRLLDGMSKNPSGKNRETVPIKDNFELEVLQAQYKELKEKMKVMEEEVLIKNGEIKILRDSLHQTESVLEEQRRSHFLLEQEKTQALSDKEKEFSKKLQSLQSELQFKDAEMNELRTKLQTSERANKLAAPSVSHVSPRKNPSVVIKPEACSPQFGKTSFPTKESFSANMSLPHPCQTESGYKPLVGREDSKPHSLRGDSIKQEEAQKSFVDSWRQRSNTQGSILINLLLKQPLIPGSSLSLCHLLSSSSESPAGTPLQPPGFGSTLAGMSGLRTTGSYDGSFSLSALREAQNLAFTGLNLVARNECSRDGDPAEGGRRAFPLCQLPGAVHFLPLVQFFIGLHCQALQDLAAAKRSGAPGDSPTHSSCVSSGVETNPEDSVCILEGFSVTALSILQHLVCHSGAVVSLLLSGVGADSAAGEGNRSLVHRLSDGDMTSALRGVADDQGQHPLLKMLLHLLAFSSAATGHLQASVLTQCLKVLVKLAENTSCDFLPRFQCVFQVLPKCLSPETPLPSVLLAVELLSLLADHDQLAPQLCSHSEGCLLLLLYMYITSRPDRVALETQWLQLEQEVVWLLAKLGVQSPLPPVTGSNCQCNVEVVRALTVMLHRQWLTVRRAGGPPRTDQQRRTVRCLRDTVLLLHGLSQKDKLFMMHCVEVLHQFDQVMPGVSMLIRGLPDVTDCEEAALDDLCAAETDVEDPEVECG

Compound	IC50
C[C@@H]1COCCN1c1cc(N=S(C)(=O)c2ccccc2O)c2ccnc(-c3ccn[nH]3)c2n1 (stereo partly drawn) [Example 276, 2-(methyl-N-{2-[(3R)-3-methylmorpholin-4-yl]-8-(1H-pyrazol-5-yl)-1,7-naphthyridin-4-yl}sulfonimidoyl)phenol]	237 nM
C[C@@H]1COCCN1c1cc(N=S(C)(=O)c2ccc(Br)cc2)c2ccnc(-c3ccn[nH]3)c2n1 (stereo partly shown) [Example 277]	78.2 nM
C[C@@H]1COCCN1c1cc(N=S(C)(=O)C(C)(C)C)c2ccnc(-c3ccn[nH]3)c2n1 (stereo partly drawn) [Example 278, 4-{[tert-butyl(methyl)oxido-λ^6-sulfanylidene]amino}-2-[(3R)-3-methylmorpholin-4-yl]-8-(1H-pyrazol-5-yl)-1,7-naphthyridine]	26.9 nM
O=S1(=Nc2cc(N3CCOCC3)nc3c(-c4ccn[nH]4)nccc23)CCOCC1 [Example 279, formic acid - N-[2-(morpholin-4-yl)-8-(1H-pyrazol-5-yl)-1,7-naphthyridin-4-yI]-1,4k4-oxathian-4-imine 4-oxide (1:1)]	293 nM
O=S1(=Nc2cc(N3CCOCC3)nc3c(-c4ccn[nH]4)nccc23)CCCCC1 [Example 280, N-[2-(morpholin-4-yl)-8-(1H-pyrazol-5-yl)-1,7-naphthyridin-4-yl]hexahydro-1λ^4-thiopyran-1-imine 1-oxide]	46.8 nM
CC(C)C(C)(O)c1cc(N2CCOC[C@H]2C)nc2c(-c3ccn[nH]3)nccc12 (stereo partly drawn) [Example 281, 3-methyl-2-{2-[(3R)-3-methylmorpholin-4-yl]-8-(1H-pyrazol-5-yl)-1,7-naphthyridin-4-yl}butan-2-ol]	13.6 nM
C[C@@H]1COCCN1c1cc(C(C)(O)C2CCOCC2)c2ccnc(-c3ccn[nH]3)c2n1 (stereo partly drawn) [Example 282, 1-{2-[(3R)-3-methylmorpholin-4-yl]-8-(1H-pyrazol-5-yl)-1,7-naphthyridin-4-yl}-1-(tetrahydro-2H-pyran-4-yl)ethanol]	12.7 nM
CCCCC(C)(O)c1cc(N2CCOC[C@H]2C)nc2c(-c3ccn[nH]3)nccc12 (stereo partly drawn) [Example 284, 2-{2-[(3R)-3-methylmorpholin-4-yl]-8-(1H-pyrazol-5-yl)-1,7-naphthyridin-4-yl}hexan-2-ol]	41.6 nM
C[C@@H]1COCCN1c1cc(C(N)=O)c2ccnc(-c3cc[nH]n3)c2n1 [Example 285, 2-[(3R)-3-methylmorpholin-4-yl]-8-(1H-pyrazol-3-yl)-1,7-naphthyridine-4-carboxamide]	509 nM
C[C@@H]1COCCN1c1cc(C2(S(C)(=O)=O)CC2)c2ccnc(-c3ccn[nH]3)c2n1 [Example 286, 2-[(3R)-3-methylmorpholin-4-yl]-4-[1-(methylsulfonyl)cyclopropyl]-8-(1H-pyrazol-5-yl)-1,7-naphthyridine]	14.5 nM
c1cc(-c2nccc3c(OCC4CCOCC4)cc(N4CCOCC4)nc23)[nH]n1 [Example 287, 2-(morpholin-4-yl)-8-(1H-pyrazol-5-yl)-4-(tetrahydro-2H-pyran-4-ylmethoxy)-1,7-naphthyridine]	675 nM
CN(C)C(=O)c1cccc(-c2cc(N3CCOCC3)nc3c(-c4ccn[nH]4)nccc23)c1 [Example 288, N,N-dimethyl-3-[2-(morpholin-4-yl)-8-(1H-pyrazol-5-yl)-1,7-naphthyridin-4-yl]benzamide]	345 nM
O=C(c1ccc(-c2cc(N3CCOCC3)nc3c(-c4ccn[nH]4)nccc23)cc1)N1CCCCC1 [Example 289, {4-[2-(morpholin-4-yl)-8-(1H-pyrazol-5-yl)-1,7-naphthyridin-4-yl]phenyl}(piperidin-1-yl)methanone]	2990 nM
CN(C)C(=O)c1ccccc1-c1cc(N2CCOCC2)nc2c(-c3ccn[nH]3)nccc12 [Example 290, N,N-dimethyl-2-[2-(morpholin-4-yl)-8-(1H-pyrazol-5-yl)-1,7-naphthyridin-4-yl]benzamide]	1190 nM
O=C(NC1CC1)c1ccc(-c2cc(N3CCOCC3)nc3c(-c4ccn[nH]4)nccc23)cc1 [Example 291, N-cyclopropyl-4-[2-(morpholin-4-yl)-8-(1H-pyrazol-5-yl)-1,7-naphthyridin-4-yl]benzamide]	83.7 nM
Cc1ccncc1-c1cc(N2CCOCC2)nc2c(-c3ccn[nH]3)nccc12 [Example 292, 4-(4-methylpyridin-3-yl)-2-(morpholin-4-yl)-8-(1H-pyrazol-5-yl)-1,7-naphthyridine]	108 nM
c1cc(-c2nccc3c(-c4ccc5cc[nH]c5c4)cc(N4CCOCC4)nc23)[nH]n1 [Example 293, 4-(1H-indo1-6-yl)-2-(morpholin-4-yl)-8-(1H-pyrazol-5-yl)-1,7-naphthyridine]	328 nM
c1cc(-c2cc(N3CCOCC3)nc3c(-c4ccn[nH]4)nccc23)c2cc[nH]c2c1 [Example 294, 4-(1H-indo1-4-yl)-2-(morpholin-4-yl)-8-(1H-pyrazol-5-yl)-1,7-naphthyridine]	37.2 nM
NC(=O)c1cccc(-c2cc(N3CCOCC3)nc3c(-c4ccn[nH]4)nccc23)c1 [Example 295, 3-[2-(morpholin-4-yl)-8-(1H-pyrazol-5-yl)-1,7-naphthyridin-4-yl]benzamide]	113 nM
NC(=O)c1ccc(-c2cc(N3CCOCC3)nc3c(-c4ccn[nH]4)nccc23)cc1 [Example 296, 4-[2-(morpholin-4-yl)-8-(1H-pyrazol-5-yl)-1,7-naphthyridin-4-yl]benzamide]	76.8 nM

Compound	IC50
CNC(=O)c1cccc(-c2cc(N3CCOCC3)nc3c(-c4ccn[nH]4)nccc23)c1 [Example 297, N-methyl-3-[2-(morpholin-4-yl)-8-(1H-pyrazol-5-yl)-1,7-naphthyridin-4-yl]benzamide]	119 nM
Fc1cccc(-c2cc(N3CCOCC3)nc3c(-c4ccn[nH]4)nccc23)c1 [Example 298, 4-(3-fluorophenyl)-2-(morpholin-4-yl)-8-(1H-pyrazol-5-yl)-1,7-naphthyridine]	59.2 nM
Clc1ccc(-c2cc(N3CCOCC3)nc3c(-c4ccn[nH]4)nccc23)s1 [Example 299, 4-(5-chlorothiophen-2-yl)-2-(morpholin-4-yl)-8-(1H-pyrazol-5-yl)-1,7-naphthyridine]	55.2 nM
COc1ccccc1-c1cc(N2CCOCC2)nc2c(-c3ccn[nH]3)nccc12 [Example 300, 4-(2-methoxyphenyl)-2-(morpholin-4-yl)-8-(1H-pyrazol-5-yl)-1,7-naphthyridine]	181 nM
FC(F)(F)c1ccccc1-c1cc(N2CCOCC2)nc2c(-c3ccn[nH]3)nccc12 [Example 301, 2-(morpholin-4-yl)-8-(1H-pyrazol-5-yl)-4-[2-(trifluoromethyl)phenyl]-1,7-naphthyridine]	21.6 nM
FC(F)(F)c1ccc(-c2cc(N3CCOCC3)nc3c(-c4ccn[nH]4)nccc23)cc1 [Example 302, 2-(morpholin-4-yl)-8-(1H-pyrazol-5-yl)-4-[4-(trifluoromethyl)phenyl]-1,7-naphthyridine]	188 nM
FC(F)(F)c1cccc(-c2cc(N3CCOCC3)nc3c(-c4ccn[nH]4)nccc23)c1 [Example 303, 2-(morpholin-4-yl)-8-(1H-pyrazol-5-yl)-4-[3-(trifluoromethyl)phenyl]-1,7-naphthyridine]	86.1 nM
Clc1cccc(-c2cc(N3CCOCC3)nc3c(-c4ccn[nH]4)nccc23)c1 [Example 304, 4-(3-chlorophenyl)-2-(morpholin-4-yl)-8-(1H-pyrazol-5-yl)-1,7-naphthyridine]	57.2 nM
CC(=O)Nc1cccc(-c2cc(N3CCOCC3)nc3c(-c4ccn[nH]4)nccc23)c1 [Example 305, N-{3-[2-(morpholin-4-yl)-8-(1H-pyrazol-5-yl)-1,7-naphthyridin-4-yl]phenyl}acetamide]	133 nM
COc1cccc(-c2cc(N3CCOCC3)nc3c(-c4ccn[nH]4)nccc23)c1 [Example 306, 4-(3-methoxyphenyl)-2-(morpholin-4-yl)-8-(1H-pyrazol-5-yl)-1,7-naphthyridine]	82.3 nM
COc1cc(OC)cc(-c2cc(N3CCOCC3)nc3c(-c4ccn[nH]4)nccc23)c1 [Example 307, 4-(3,5-dimethoxyphenyl)-2-(morpholin-4-yl)-8-(1H-pyrazol-5-yl)-1,7-naphthyridine]	189 nM
Cc1cccc(-c2cc(N3CCOCC3)nc3c(-c4ccn[nH]4)nccc23)c1 [Example 308, 4-(3-methylphenyl)-2-(morpholin-4-yl)-8-(1H-pyrazol-5-yl)-1,7-naphthyridine]	131 nM
COc1ccc(-c2cc(N3CCOCC3)nc3c(-c4ccn[nH]4)nccc23)cc1 [Example 309, 4-(4-methoxyphenyl)-2-(morpholin-4-yl)-8-(1H-pyrazol-5-yl)-1,7-naphthyridine]	146 nM
c1coc(Cc2cc(N3CCOCC3)nc3c(-c4ccn[nH]4)nccc23)c1 [Example 310, 4-(furan-2-ylmethyI)-2-(morpholin-4-yl)-8-(1H-pyrazol-5-yl)-1,7-naphthyridine]	97.7 nM
Cc1cc(-c2cc(N3CCOCC3)nc3c(-c4ccn[nH]4)nccc23)cc(C)c1O [Example 311, 2,6-dimethyl-4-[2-(morpholin-4-yl)-8-(1H-pyrazol-5-yl)-1,7-naphthyridin-4-yl]phenol]	376 nM
Cc1cccc(-c2cc(N3CCOCC3)nc3c(-c4ccn[nH]4)nccc23)c1C [Example 312, 4-(2,3-dimethylphenyl)-2-(morpholin-4-yl)-8-(1H-pyrazol-5-yl)-1,7-naphthyridine]	23.7 nM
OCc1cccc(-c2cc(N3CCOCC3)nc3c(-c4ccn[nH]4)nccc23)c1 [Example 313, {3-[2-(morpholin-4-yl)-8-(1H-pyrazol-5-yl)-1,7-naphthyridin-4-yl]phenyl}methanol]	29 nM
Fc1ccc(-c2cc(N3CCOCC3)nc3c(-c4ccn[nH]4)nccc23)cc1 [Example 314, 4-(4-fluorophenyl)-2-(morpholin-4-yl)-8-(1H-pyrazol-5-yl)-1,7-naphthyridine]	67.9 nM
Clc1ccc(-c2cc(N3CCOCC3)nc3c(-c4ccn[nH]4)nccc23)cc1 [Example 316, 4-(4-chlorophenyl)-2-(morpholin-4-yl)-8-(1H-pyrazol-5-yl)-1,7-naphthyridine]	53.2 nM

Same assay, conditions: tracer B, TR-FRET; read-out: ATR binding (tracer B) IC50

Compound	IC50
c1cc(-c2nccc3c(OCC4CCOCC4)cc(N4CCOCC4)nc23)[nH]n1 [Example 287, 2-(morpholin-4-yl)-8-(1H-pyrazol-5-yl)-4-(tetrahydro-2H-pyran-4-ylmethoxy)-1,7-naphthyridine]	461 nM
